Structures can show the parent of a compound that is named as a salt.
Test: Stability of the product (observation during preparation)
Format: physicochemical
Settings: observed during preparation and purification

Question: For CCn1cc(C(=O)O)c(=O)c2cc(F)c(N3CCN(C=N[C@@H]4C(=O)N5[C@@H]4SC(C)(C)[C@@H]5C(=O)O)CC3)nc21 [Compound H, [2S-(2α,5α,6β)]-7-[4-[[(2-Carboxy-2,3-dimethyl-7-oxo-4-thia-1-azabicyclo[3.2.0]-hept-6-yl)imino]methyl]-1-piperazinyl]-1-ethyl-6-fluoro-1,4-dihydro-4-oxo-1,8-naphthyridine-carboxylic acid disodium salt], which “stability of the product” value is on record?
Answer: The value was “very unstable”.

From patent publication US5162523A, “Cephalosporin antibacterial compounds” (Hoffmann-La Roche Inc., priority 1990, dated 1992)
